Test results reported in US12516026B2, “Cabozantinib compositions and methods of use” (priority 2023, dated 2026).

Tests used:
[1] = Example 25: impurity profile of cabozantinib lauryl sulfate lots stored at 40° C. and 75% relative humidity; assay type: physicochemical; conditions: 40° C./75% RH
[2] = single dose, healthy human subjects, cited from earlier work

Compound	Related Substance 1 Int2-Imp1 ([1]; 0 months) [%]	Related Substance 1 Int3-Imp5 ([1]; 0 months) [%]	Related Substance 1 Total imp. ([1]; 0 months) [%]	Related Substance 1 Unidentified imp ([1]; 0 months) [%]	Related Substance 2 Int1 ([1]; 0 months) [ppm]	Water Content ([1]; 0 months) [%]	Related Substance 1 Int2-Imp1 ([1]; 1 month) [%]	Related Substance 1 Int3-Imp5 ([1]; 1 month) [%]	Related Substance 1 Total imp. ([1]; 1 month) [%]	Related Substance 2 Int1 ([1]; 1 month) [ppm]	Related Substance 1 Int2-Imp1 ([1]; 3 months) [%]	Related Substance 1 Int3-Imp5 ([1]; 3 months) [%]	Related Substance 1 Total imp. ([1]; 3 months) [%]	Related Substance 2 Int1 ([1]; 3 months) [ppm]	Water Content ([1]; 3 months) [%]	also measured
CCCCCCCCCCCCOS(=O)(=O)O.COc1cc2nccc(Oc3ccc(NC(=O)C4(C(=O)Nc5ccc(F)cc5)CC4)cc3)c2cc1OC [Example 25B, cabozantinib lauryl sulfate]	0.12	<0.05	0.20	0.06	2.77	0.19	0.07	<0.05	0.09	6.28	0.06	<0.05	0.11	6.50	0.10	Related Substance 1 Int3-Imp2 ([1]; 3 months): <0.05%; Related Substance 1 Int2-Imp1 ([1]; 6 months): 0.10%; Related Substance 1 Int3-Imp5 ([1]; 6 months): <0.05%; Related Substance 1 Int3-Imp7 ([1]; 6 months): <0.05%; Related Substance 1 Total imp. ([1]; 6 months): 0.10%; Related Substance 1 Unidentified imp ([1]; 6 months): <0.05%; Related Substance 2 Int1 ([1]; 6 months): 7.34 ppm
CCCCCCCCCCCCOS(=O)(=O)O.COc1cc2nccc(Oc3ccc(NC(=O)C4(C(=O)Nc5ccc(F)cc5)CC4)cc3)c2cc1OC [Example 25C, cabozantinib lauryl sulfate]	0.10	0.05	0.24	<0.05	5.22	0.31	0.11	<0.05	0.24	5.98	0.13	<0.05	0.29	6.99	0.05	Related Substance 1 Int3-Imp7 ([1]; 0 months): <0.05%; Related Substance 1 Int3-Imp7 ([1]; 1 month): 0.05%; Related Substance 1 Unidentified imp ([1]; 1 month): <0.05%; Water Content ([1]; 1 month): 0.29%; Related Substance 1 Int2-Imp1 ([1]; 2 months): 0.13%; Related Substance 1 Int3-Imp5 ([1]; 2 months): <0.05%; Related Substance 1 Int3-Imp7 ([1]; 2 months): <0.05%; Related Substance 1 Total imp. ([1]; 2 months): 0.21%; Related Substance 2 Int1 ([1]; 2 months): 6.07 ppm; Water Content ([1]; 2 months): 0.068%; Related Substance 1 Int3-Imp7 ([1]; 3 months): <0.05%; Related Substance 1 Unidentified imp ([1]; 3 months): <0.05%
^14C-cabozantinib	–	–	–	–	–	–	–	–	–	–	–	–	–	–	–	radioactivity recovered in feces ([2]; 48-day collection period): approximately 54%; radioactivity recovered in urine ([2]; 48-day collection period): ~27%; total administered radioactivity recovered ([2]; within a 48-day collection period): approximately 81%
